Numbers after ± are expanded uncertainties.

Data on one molecule can be found in the NIST ThermoML archive (doi:10.1016/j.fluid.2015.10.026).

For this data set the following is noted: Liquid, Brillouin light scattering.

On to `Cc1ccccc1` [toluene], for which the speed of sound (commonly the propagation velocity of pressure waves in the medium) (323.15 K) is reported as 1200.8 ± 6 m/s; the speed of sound (373.15 K) is given as 1000 ± 5 m/s; the speed of sound (423.15 K) is recorded as 806 ± 5.2 m/s; the speed of sound (473.15 K) is recorded as 616.2 ± 3.3 m/s; the speed of sound (523.15 K) is reported as 425.5 ± 2.4 m/s.
